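The compound was tested at five concentrations on cells cultured in 96-well plates, with a 48-hour exposure period. GI50 marks 50% less growth. Definition used: TGI = concentration required for complete inhibition of growth.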
Assays:
Assay in all cases: DTP human tumour cell line panel, 48 h
A549 NSCLC = test system: A549 NSCLC
DU-145 prostate = test system: DU-145 prostate
MDA-MB-231 breast = test system: MDA-MB-231 breast
MALME-3M melanoma = test system: MALME-3M melanoma
OVCAR-8 ovarian = test system: OVCAR-8 ovarian
NCI-H522 lung = test system: NCI-H522 lung
HCT-116 colon = test system: HCT-116 colon
NCI-H23 lung = test system: NCI-H23 lung
T-47D breast = test system: T-47D breast
SK-MEL-2 melanoma = test system: SK-MEL-2 melanoma
MCF7 breast = test system: MCF7 breast
786-0 renal = test system: 786-0 renal
IGROV1 ovarian = test system: IGROV1 ovarian
SK-MEL-28 melanoma = test system: SK-MEL-28 melanoma
RPMI-8226 leukemia = test system: RPMI-8226 leukemia
EKVX NSCLC = test system: EKVX NSCLC
KM12 colon = test system: KM12 colon
CAKI-1 renal = test system: CAKI-1 renal
HOP-62 NSCLC = test system: HOP-62 NSCLC
SN12C renal = test system: SN12C renal
LOX IMVI melanoma = test system: LOX IMVI melanoma
OVCAR-5 ovarian = test system: OVCAR-5 ovarian
HT29 colon = test system: HT29 colon
OVCAR-4 ovarian = test system: OVCAR-4 ovarian
PC-3 prostate = test system: PC-3 prostate
COLO 205 colon = test system: COLO 205 colon
U251 CNS = test system: U251 CNS
NCI-H226 lung = test system: NCI-H226 lung
ACHN renal = test system: ACHN renal
RXF 393 renal = test system: RXF 393 renal
SW-620 colon = test system: SW-620 colon
HS 578T breast = test system: HS 578T breast
A498 renal = test system: A498 renal
SK-OV-3 ovarian = test system: SK-OV-3 ovarian
HL-60(TB) leukemia = test system: HL-60(TB) leukemia
SF-268 CNS = test system: SF-268 CNS
UACC-62 melanoma = test system: UACC-62 melanoma
UO-31 renal = test system: UO-31 renal
SF-539 CNS = test system: SF-539 CNS
SNB-19 CNS = test system: SNB-19 CNS
TK-10 renal = test system: TK-10 renal
SK-MEL-5 melanoma = test system: SK-MEL-5 melanoma
HCC-2998 colon = test system: HCC-2998 colon
OVCAR-3 ovarian = test system: OVCAR-3 ovarian
SNB-75 CNS = test system: SNB-75 CNS
BT-549 breast = test system: BT-549 breast
HOP-92 NSCLC = test system: HOP-92 NSCLC
MDA-MB-435 = test system: MDA-MB-435
SF-295 CNS = test system: SF-295 CNS
UACC-257 melanoma = test system: UACC-257 melanoma
HCT-15 colon = test system: HCT-15 colon
NCI-H460 lung = test system: NCI-H460 lung

CCOC(=O)c1c(NC(=O)c2ccc(C(F)(F)F)cc2)sc2c3c(ccc12)OCN(C)C3 gave a GI50 (A549 NSCLC) of 1.79 µM, a TGI (A549 NSCLC) of 3.61 µM and a GI50 (DU-145 prostate) of 1.81 µM. For the same compound, the TGI (DU-145 prostate) was 3.41 µM, the GI50 (MDA-MB-231 breast) was 1.86 µM and the TGI (MDA-MB-231 breast) was 3.7 µM. It also gave a GI50 (MALME-3M melanoma) of 1.83 µM, a TGI (MALME-3M melanoma) of 3.51 µM and a GI50 (OVCAR-8 ovarian) of 1.86 µM. The TGI (OVCAR-8 ovarian) was 3.76 µM, the GI50 (NCI-H522 lung) was 1.72 µM and the TGI (NCI-H522 lung) was 3.35 µM. The GI50 (HCT-116 colon) was 1.74 µM, the TGI (HCT-116 colon) was 3.34 µM and the GI50 (NCI-H23 lung) was 1.81 µM. The TGI (NCI-H23 lung) was 3.5 µM, the GI50 (T-47D breast) was 1.84 µM and the TGI (T-47D breast) was 3.96 µM. The GI50 (SK-MEL-2 melanoma) was 1.8 µM, the TGI (SK-MEL-2 melanoma) was 3.44 µM and the GI50 (MCF7 breast) was 1.62 µM. It also gave a TGI (MCF7 breast) of 3.08 µM, a GI50 (786-0 renal) of 2.22 µM and a TGI (786-0 renal) of 4.92 µM. For the same compound, the GI50 (IGROV1 ovarian) was 1.81 µM, the TGI (IGROV1 ovarian) was 3.52 µM and the GI50 (SK-MEL-28 melanoma) was 1.8 µM. The TGI (SK-MEL-28 melanoma) was 3.28 µM, the GI50 (RPMI-8226 leukemia) was 1.33 µM and the TGI (RPMI-8226 leukemia) was 3.86 µM. It also gave a GI50 (EKVX NSCLC) of 1.69 µM, a TGI (EKVX NSCLC) of 3.36 µM and a GI50 (KM12 colon) of 2.01 µM. The TGI (KM12 colon) was 3.77 µM, the GI50 (CAKI-1 renal) was 1.67 µM and the TGI (CAKI-1 renal) was 3.2 µM. The GI50 (HOP-62 NSCLC) was 2 µM, the TGI (HOP-62 NSCLC) was 4.32 µM and the GI50 (SN12C renal) was 1.79 µM. For the same compound, the TGI (SN12C renal) was 3.43 µM, the GI50 (LOX IMVI melanoma) was 1.65 µM and the TGI (LOX IMVI melanoma) was 3.21 µM. For the same compound, the GI50 (OVCAR-5 ovarian) was 1.8 µM, the TGI (OVCAR-5 ovarian) was 3.4 µM and the GI50 (HT29 colon) was 1.75 µM. For the same compound, the TGI (HT29 colon) was 3.34 µM, the GI50 (OVCAR-4 ovarian) was 1.76 µM and the TGI (OVCAR-4 ovarian) was 3.46 µM. The GI50 (PC-3 prostate) was 1.53 µM, the TGI (PC-3 prostate) was 3.15 µM and the GI50 (COLO 205 colon) was 1.78 µM. It also gave a TGI (COLO 205 colon) of 3.5 µM, a GI50 (U251 CNS) of 1.71 µM and a TGI (U251 CNS) of 3.34 µM. It also gave a GI50 (NCI-H226 lung) of 1.79 µM, a TGI (NCI-H226 lung) of 3.6 µM and a GI50 (ACHN renal) of 1.8 µM. It also gave a TGI (ACHN renal) of 3.24 µM, a GI50 (RXF 393 renal) of 1.56 µM and a TGI (RXF 393 renal) of 2.97 µM. For the same compound, the GI50 (SW-620 colon) was 1.78 µM, the TGI (SW-620 colon) was 3.42 µM and the GI50 (HS 578T breast) was 1.84 µM. For the same compound, the TGI (HS 578T breast) was 3.97 µM, the GI50 (A498 renal) was 1.67 µM and the TGI (A498 renal) was 3.21 µM. It also gave a GI50 (SK-OV-3 ovarian) of 1.95 µM, a TGI (SK-OV-3 ovarian) of 3.77 µM and a GI50 (HL-60(TB) leukemia) of 1.69 µM. For the same compound, the TGI (HL-60(TB) leukemia) was 4.74 µM, the GI50 (SF-268 CNS) was 1.83 µM and the TGI (SF-268 CNS) was 3.66 µM. For the same compound, the GI50 (UACC-62 melanoma) was 1.72 µM, the TGI (UACC-62 melanoma) was 3.28 µM and the GI50 (UO-31 renal) was 1.55 µM. For the same compound, the TGI (UO-31 renal) was 2.95 µM, the GI50 (SF-539 CNS) was 1.75 µM and the TGI (SF-539 CNS) was 3.3 µM. The GI50 (SNB-19 CNS) was 1.78 µM, the TGI (SNB-19 CNS) was 3.52 µM and the GI50 (TK-10 renal) was 1.68 µM. The TGI (TK-10 renal) was 3.13 µM, the GI50 (SK-MEL-5 melanoma) was 1.81 µM and the TGI (SK-MEL-5 melanoma) was 3.45 µM. The GI50 (HCC-2998 colon) was 1.67 µM, the TGI (HCC-2998 colon) was 3.15 µM and the GI50 (OVCAR-3 ovarian) was 1.79 µM. It also gave a TGI (OVCAR-3 ovarian) of 3.33 µM, a GI50 (SNB-75 CNS) of 1.49 µM and a TGI (SNB-75 CNS) of 3.34 µM. The GI50 (BT-549 breast) was greater than 100 µM, the TGI (BT-549 breast) was greater than 100 µM and the GI50 (HOP-92 NSCLC) was 1.14 µM. The TGI (HOP-92 NSCLC) was 2.68 µM, the GI50 (MDA-MB-435) was 1.65 µM and the TGI (MDA-MB-435) was 3.16 µM. The GI50 (SF-295 CNS) was 1.79 µM, the TGI (SF-295 CNS) was 3.32 µM and the GI50 (UACC-257 melanoma) was 1.62 µM. The TGI (UACC-257 melanoma) was 3.27 µM, the GI50 (HCT-15 colon) was 1.74 µM and the TGI (HCT-15 colon) was 3.28 µM. The GI50 (NCI-H460 lung) was 1.89 µM and the TGI (NCI-H460 lung) was 3.55 µM.

Source: PubChem BioAssay (NCI)
